Assay [1] concerns CROT gene expression. In words: Expression of CROT in rat epidermal split containing sebaceous glands after topical PPARgamma agonist, real-time PCR. The assay is classed as in vivo. The conditions noted are these: topical 1% in acetone, female Fuzzy rats, standardized to 18S, versus carrier group; for CROT Relative induction - Kinetics (Hours) 0: 0 hours; for CROT Relative induction - Kinetics (Hours) 8: 8 hours; for CROT Relative induction - Kinetics (Hours) 24: 24 hours; for CROT Relative induction - Kinetics (Hours) 48: 48 hours; for CROT Relative induction - Kinetics (Hours) 96: 96 hours. An excerpt:
Animals: Species: rat • Strain: Ico: Hsd: FUZZY-fz • Gender: female • Age: 10 weeks
Number per batch: 40 (8 animals per group)
Treatment: Route of administration: topical • Compound/batch: PPARgamma agonists:
A: 5-{4-[2-(methylpyridin-2-ylamino)ethoxy]-benzyl}thiazolidine-2,4-dione
B: (2-methoxyethoxymethoxy)naphthalene-2-carboxylic acid [4′-(2,4-dioxothiazolidin-5-ylmethyl)biphenyl-3-ylmethyl]methylamide or rosiglitazone
C: (S)-2-ethoxy-3-{4-[6-(3-heptyl-1-methyl-ureido)pyridin-2-yl]phenyl}propionic acid • Doses: 1% • Carrier: acetone (001) • Duration 96 hours
Method of evaluation: The animals are weighed at the beginning and at the end of the study. Skin biopsies are taken (6 samples of skin excised per rat) in order to analyse the expression of the genes (RNA extraction, reverse transcriptase and real-time PCR). The samples are stored overnight at 4° C. before incubation in 1M sodium bromide (NaBr) for 2 hours at 37° C. After incubation, the samples are separated into epidermis or dermis. The epidermal samples are stored at […]. Under these conditions, the sebaceous glands are in the epidermal split. PCRs are carried out, beginning with the CNAs originating from the epidermal splits containing sebaceous glands from control rats or rats treated with a PPARγ agonist: the mRNA is extracted using a column and quantified. The quality of the mRNAs is measured and is represented by the 18S/28S ratio. The results are standardized with respect to 18S, expressed as relative induction versus untreated animals (carrier group). The statistical analysis is obtained using internal software based on a modified Monte Carlo statistical analysis.
(In general: Real-time PCR tracks product formation cycle by cycle.)

The test system of assay [2] is CROT (carnitine O-octanoyltransferase) gene expression. In words: Expression of CROT in Fuzzy rat epidermal split after 8 days of topical treatment, Affymetrix transcriptome analysis. The assay is classed as in vivo. The conditions noted are these: female Fuzzy rats, topical 1% once a day for 8 days, Affymetrix 1368426_at, control condition 601. As for the experimental part: Fuzzy rat epidermal split expression data
The studies are carried out in female Fuzzy rats (Hsd: Fuzzy-fz) ten weeks old at the beginning of the study. The animals are treated at a dose of 1% (PPARg agonist rosiglitazone in solution in acetone) once a day for 8 days. Two hours after the final treatment, the animals are sacrificed by euthanasia and the skin on the back is removed. After incubation in dispase, the epidermis carrying the sebaceous glands is detached from the dermis (epidermal split). After grinding of the samples, the mRNA is prepared using Qiagen columns, in accordance with the supplier's instructions. The material thus prepared is subjected to large-scale transcriptome analysis on an Affymetrix platform. The data are subsequently standardized and, after statistical analysis, the results produced are expressed in arbitrary expression units (see below) accompanied, for each piece of data, by a statistical value for presence of the transcript (presence=1; absence=0).
Table 2: Measurement of the Expression of CROT in an Epidermal Split after 8 Days of Topical Treatment of FUZZY Rat Females with a PPARγ Agonist (Rosiglitazone) at 1%

For `CCCCCCCNC(=O)N(C)c1cccc(-c2ccc(C[C@H](OCC)C(=O)O)cc2)n1` [C, (S)-2-ethoxy-3-{4-[6-(3-heptyl-1-methyl-ureido)pyridin-2-yl]phenyl}propionic acid], in assay [1], the “CROT Relative induction - Kinetics (Hours) 0” value is listed as 1, the “CROT Relative induction - Kinetics (Hours) 8” value was 0.40, the “CROT Relative induction - Kinetics (Hours) 24” value came out at 0.52 and the “CROT Relative induction - Kinetics (Hours) 48” value is reported as 0.36. In assay [1], the “CROT Relative induction - Kinetics (Hours) 96” value was 0.20.
As to `CN(CCOc1ccc(CC2SC(=O)NC2=O)cc1)c1ccccn1` (centres unmarked) [rosiglitazone], the “Expression after treatment with 1% rosiglitazone” value in assay [2] was 742 arbitrary expression units.
For the compound `CN(CCOc1ccc(CC2SC(=O)NC2=O)cc1)c1ccccn1` (centres unmarked) [A, 5-{4-[2-(methylpyridin-2-ylamino)ethoxy]-benzyl}thiazolidine-2,4-dione], in assay [1], the “CROT Relative induction - Kinetics (Hours) 0” value is given as 1, the “CROT Relative induction - Kinetics (Hours) 8” value is given as 2.24, the “CROT Relative induction - Kinetics (Hours) 24” value is listed as 2.16 and the “CROT Relative induction - Kinetics (Hours) 48” value is on record as 1.54. In assay [1], the “CROT Relative induction - Kinetics (Hours) 96” value stood at 0.94.

The record behind these values is US20110150772A1, “MODULATORS OF CARNITINE OCTANOYLTRANSFERASE IN THE TREATMENT OF ACNE, OF SEBORRHOEIC DERMATITIS OR OF HYPERSEBORRHOEA” (GALDERMA RESEARCH & DEVELOPMENT, priority 2008, published 2011).
